The values that follow come from patent publication US9676714B2, “Sulfonylindole derivatives and method for preparing the same” (Daewoong Pharmaceutical Co., Ltd., priority 2013, dated 2017).

Molecules are shown by their SMILES. Counter-ions that a name gives are not always drawn.

The target in the test is T1, proton pump (H+/K+-ATPase) (Sus scrofa, UniProt P19156).
T1 construct: Gastric vesicles were prepared from hog stomach via centrifugal separation; from tissue; host or cells: hog stomach (gastric vesicles, method of Rabon et al. 1988)
T1 sequence (P19156 whole entry): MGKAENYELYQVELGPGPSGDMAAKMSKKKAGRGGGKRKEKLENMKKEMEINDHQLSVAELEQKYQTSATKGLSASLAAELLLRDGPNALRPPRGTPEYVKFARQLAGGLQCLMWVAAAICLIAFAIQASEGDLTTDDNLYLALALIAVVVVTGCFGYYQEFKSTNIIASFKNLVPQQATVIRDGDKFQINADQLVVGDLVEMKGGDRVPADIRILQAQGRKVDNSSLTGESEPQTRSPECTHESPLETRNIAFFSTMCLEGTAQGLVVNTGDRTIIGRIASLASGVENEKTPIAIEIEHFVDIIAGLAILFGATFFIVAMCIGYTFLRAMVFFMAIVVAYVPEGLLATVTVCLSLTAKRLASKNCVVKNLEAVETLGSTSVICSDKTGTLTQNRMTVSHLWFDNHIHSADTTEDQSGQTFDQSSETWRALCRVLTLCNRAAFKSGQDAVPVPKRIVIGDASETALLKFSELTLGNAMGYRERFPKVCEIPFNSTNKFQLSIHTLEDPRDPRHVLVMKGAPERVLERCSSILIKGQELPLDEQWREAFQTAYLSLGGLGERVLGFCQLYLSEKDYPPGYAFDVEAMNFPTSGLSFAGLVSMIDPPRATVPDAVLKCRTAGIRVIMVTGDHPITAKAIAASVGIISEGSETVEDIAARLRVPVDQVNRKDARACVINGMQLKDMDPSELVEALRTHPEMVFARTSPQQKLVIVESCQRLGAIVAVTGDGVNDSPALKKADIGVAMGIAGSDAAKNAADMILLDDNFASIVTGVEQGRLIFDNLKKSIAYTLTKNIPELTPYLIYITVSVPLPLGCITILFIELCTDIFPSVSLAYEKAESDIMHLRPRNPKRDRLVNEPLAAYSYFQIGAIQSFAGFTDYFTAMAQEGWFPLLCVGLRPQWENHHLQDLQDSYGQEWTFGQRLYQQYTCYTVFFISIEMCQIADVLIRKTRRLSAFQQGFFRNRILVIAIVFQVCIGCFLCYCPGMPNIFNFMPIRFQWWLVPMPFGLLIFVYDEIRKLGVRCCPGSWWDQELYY
T1 sequence (P18434 whole entry partner): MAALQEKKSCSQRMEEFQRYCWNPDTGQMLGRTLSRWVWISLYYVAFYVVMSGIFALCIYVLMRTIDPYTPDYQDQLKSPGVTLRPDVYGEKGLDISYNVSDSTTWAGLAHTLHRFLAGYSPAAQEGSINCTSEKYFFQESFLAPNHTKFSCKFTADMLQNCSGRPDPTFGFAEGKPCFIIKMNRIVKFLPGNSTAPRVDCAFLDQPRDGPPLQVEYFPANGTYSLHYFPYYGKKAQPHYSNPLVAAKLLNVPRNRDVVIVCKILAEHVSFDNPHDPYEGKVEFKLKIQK
The test can be described thus: Measurement of inhibitory effects on proton pump (H+/K+-ATPase) activities. Format: biochemical. The conditions noted are these: hog gastric vesicles, K+-specific H+/K+-ATPase activity, Tris-HCl buffer pH 7.4, 37° C. for 40 minutes, malachite green Pi readout. In a few lines: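 Hog gastric vesicles in 60 mmol/l Tris-HCl pH 7.4 with 0.5% DMSO were treated with compounds at room temperature; reaction was started with 10 μl of 10 mmol/l ATP stock. Released Pi was read at 570 nm, K+-specific activity taken as the ±K+ difference. IC50 from 4-parameter logistic fit.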
Take `CNCc1cn(S(=O)(=O)c2cccc(OC)c2)c2cc(Nc3ccc(C)nc3F)ccc12` [Example 171, N-(2-fluoro-6-methylpyridin-3-yl)-1-((3-methoxyphenyl)sulfonyl)-3-((methylamino)methyl)-1H-indol-6-amine hydrochloride]: the IC50 – broadly, the concentration at which inhibition is half-maximal – turned out to be 630 nM. In the case of `CNCc1cn(S(=O)(=O)c2cccc(Cl)c2)c2cc(Nc3ccc(C)c(F)c3F)ccc12` [Example 156, 1-((3-chlorophenyl)sulfonyl)-N-(2,3-difluoro-4-methylphenyl)-3-((methylamino)methyl)-1H-indol-6-amine hydrochloride] it was 380 nM; in that of `CNCc1cn(S(=O)(=O)c2cccnc2)c2cc(Nc3c(C)cc(Cl)cc3C)ccc12` [Example 85, N-(4-chloro-2,6-dimethylphenyl)-3-((methylamino)methyl)-1-(pyridin-3-ylsulfonyl)-1H-indol-6-amine hydrochloride], 370 nM; in that of `CNCc1cn(S(=O)(=O)c2cccc(Cl)c2)c2cc(Nc3ccc(F)cc3Cl)ccc12` [Example 149, N-(2-chloro-4-fluorophenyl)-1-((3-chlorophenyl)sulfonyl)-3-((methylamino)methyl)-1H-indol-6-amine hydrochloride], 10 nM. Regarding `CNCc1cn(S(=O)(=O)c2cc(C)cc(C)c2)c2cc(Nc3ccc(C)cc3F)ccc12` [Example 239, 1-((3,5-dimethylphenyl)sulfonyl)-N-(2-fluoro-4-methylphenyl)-3-((methylamino)methyl)-1H-indol-6-amine hydrochloride], the IC50 is 1750 nM. In the case of `CNCc1cn(S(=O)(=O)c2ccc(C(F)(F)F)cc2)c2cc(Nc3ccc(C)cc3Cl)ccc12` [Example 221, N-(2-chloro-4-methylphenyl)-3-((methylamino)methyl)-1-((4-(trifluoromethyl)phenyl)sulfonyl)-1H-indol-6-amine hydrochloride], the half-maximal inhibitory concentration (IC50) stood at 1580 nM. The compound `CNCc1cn(S(=O)(=O)c2cccnc2)c2cc(-c3cnc(F)c(C)c3)ccc12` [Example 257, 1-(6-(6-fluoro-5-methylpyridin-3-yl)-1-(pyridin-3-ylsulfonyl)-1H-indol-3-yl)-N-methylmethanamine hydrochloride] yielded an IC50 of 14200 nM. In the case of `CNCc1cn(S(=O)(=O)c2ccc(OC(F)F)cc2)c2cc(-c3cncnc3)ccc12` [Example 265, 1-(1-((4-(difluoromethoxy)phenyl)sulfonyl)-6-(pyrimidin-5-yl)-1H-indol-3-yl)-N-methylmethanamine hydrochloride] it was 40000 nM.

The compound `CNCc1cn(S(=O)(=O)c2cccnc2)c2cc(Nc3ccnc(Cl)c3Cl)ccc12` [Example 132, N-(2,3-dichloropyridin-4-yl)-3-((methylamino)methyl)-1-(pyridin-3-ylsulfonyl)-1H-indol-6-amine hydrochloride] had an IC50 of 730 nM.

`COc1ccc(Nc2ccc3c(C(=O)N(C)C)cn(S(=O)(=O)c4cccnc4)c3c2)c(F)c1` [Example 324, 6-((2-fluoro-4-methoxyphenyl)amino)-N,N-dimethyl-1-(pyridin-3-ylsulfonyl)-1H-indol-3-carboxamide] returned an IC50 of 20000 nM. `CNCc1cn(S(=O)(=O)c2cccnc2)c2cc(-c3cncnc3)ccc12` [Example 258, N-methyl-1-(1-(pyridin-3-ylsulfonyll)-6-(pyrimidin-5-yl)-1H-indol-3-yl)methanamine hydrochloride] had an IC50 of 20000 nM. In the case of `CNCc1cn(S(=O)(=O)c2cccnc2)c2cc(Nc3ccc(Cl)cc3C#N)ccc12` [Example 30, 5-chloro-2-((3-((methylamino)methyl)-1-(pyridin-3-ylsulfonyl)-1H-indol-6-yl)amino)benzonitrile hydrochloride] it was 1140 nM; in that of `CNCc1cn(S(=O)(=O)c2cccc(F)c2)c2cc(Nc3ccc(F)cc3Cl)ncc12` [Example 355, N-(2-chloro-4-fluorophenyl)-1-((3-fluorophenyl)sulfonyl)-3-((methylamino)methyl)-1H-pyrrolo[3,2-c]pyridin-6-amine hydrochloride], 480 nM. Take `CNCc1cn(S(=O)(=O)c2cccc(C(F)(F)F)c2)c2cc(Nc3ccc(C)cc3F)ccc12` [Example 183, N-(2-fluoro-4-methylphenyl)-3-((methylamino)methyl)-1-((3-(trifluoromethyl)phenyl)sulfonyl)-1H-indol-6-amine hydrochloride]: half-maximal inhibition (IC50) was put at 590 nM. Compound `CNCc1cn(S(=O)(=O)c2cccnc2)c2cc(Nc3c(F)cc(F)cc3Br)ccc12` [Example 91, N-(2-bromo-4,6-difluorophenyl)-3-((methylamino)methyl)-1-(pyridin-3-ylsulfonyl)-1H-indol-6-amine hydrochloride] registered an IC50 of 870 nM. `CNCc1cn(S(=O)(=O)c2cccnc2)c2cc(Cc3ccc(Cl)nc3Cl)ccc12` [Example 285, 1-(6-((2,6-dichloropyridin-3-yl)methyl)-1-(pyridin-3-ylsulfonyl)-1H-indol-3-yl)-N-methylmethanamine hydrochloride]: the IC50 worked out at 650 nM. `CNCc1cn(S(=O)(=O)c2cccc(OC)c2)c2cc(Nc3ccc(C)nc3Cl)ccc12` [Example 172, N-(2-chloro-6-methylpyridin-3-yl)-1-((3-methoxyphenyl)sulfonyl)-3-((methylamino)methyl)-1H-indol-6-amine hydrochloride] came in with an IC50 of 1500 nM.

As for `CNCc1cn(S(=O)(=O)c2cccnc2)c2cc(Nc3ccc(O)cc3C)ccc12` [Example 47, 3-methyl-4-((3-((methylamino)methyl)-1-(pyridin-3-ylsulfonyl)-1H-indol-6-yl)amino)phenol hydrochloride], the IC50 stood at 840 nM. Regarding `CNCc1cn(S(=O)(=O)c2cccc(F)c2)c2cc(Nc3ccc(C)cc3F)ccc12` [Example 136, N-(2-fluoro-4-methylphenyl)-1-((3-fluorophenyl)sulfonyl)-3-((methylamino)methyl)-1H-indol-6-amine hydrochloride], the 50% inhibitory concentration (IC50) was found to be 710 nM.

Turning to `CNCc1cn(S(=O)(=O)c2cccnc2)c2cc(Nc3c(Cl)cc(Cl)cc3Cl)ccc12` [Example 87, 3-((methylamino)methyl)-1-(pyridin-3-ylsulfonyl)-N-(2,4,6-trichlorophenyl)-1H-indol-6-amine hydrochloride], the 50% inhibitory concentration (IC50) amounted to 400 nM.

`CNCc1cn(S(=O)(=O)c2cccnc2)c2cc(Nc3cc(C)c(Cl)cc3C)ccc12` [Example 75, N-(4-chloro-2,5-dimethylphenyl)-3-((methylamino)methyl)-1-(pyridin-3-ylsulfonyl)-1H-indol-6-amine hydrochloride] registered an IC50 of 290 nM. As to `CNCc1cn(S(=O)(=O)c2ccc(Cl)c(Cl)c2Cl)c2cc(Nc3ccc(C)cc3F)ccc12` [Example 240, N-(2-fluoro-4-methylphenyl)-3-((methylamino)methyl)-1-((2,3,4-trichlorophenyl)sulfonyl)-1H-indol-6-amine hydrochloride], the IC50 came to 1670 nM. The same measure for `CNCc1cn(S(=O)(=O)c2cccnc2)c2cc(Nc3ccc(Cl)cc3)ccc12` [Example 11, N-(4-chlorophenyl)-3-((methylamino)methyl)-1-(pyridin-3-ylsulfonyl)-1H-indol-6-amine hydrochloride]: 1020 nM.
